Test results as given in PMC8047011, “Enantiomers of 2-methylglutamate and 2-methylglutamine selectively impact mouse brain metabolism and behavior” (Scientific Reports, 2021).

Legend:
GABAB (B1b/B2) = molecular target: T1, GABAB (B1b/B2) (Homo sapiens, UniProt Q9UBS5); assay: GABAB (B1b/B2) binding assay; settings: triplicate, read-out: % of radioligand binding inhibition, GABAB (B1b/B2)
T1 construct: purchased SB Drug Discovery (CNS discovery panel, FLIPR); Eurofins Discovery (Cerep)
Description: mGluR1, mGluR2, mGluR5 and GABAB binding assays were performed by Eurofins Discovery. […]
mGluR5 and GABAB binding assays were performed using recombinant CHO-K1 cells and
[3H]CGP-54626 and [3H]quisqalic acid, respectively. All compounds were tested at a single
concentration of 100 uM in triplicate. […]

AMPA nonspecific = assay: Nonspecific AMPA binding assay; settings: 100 μM, triplicate; rat
Description: (§1) Nonspecific AMPA, kainate and NMDA binding assays were performed by Eurofins Discovery
(§2) (Cerep) using rat cerebral cortex membranes and radiolabeled [3H]AMPA, [3H]kainic acid and
(§3) [3H]CGP 39653, respectively. […]

kainate nonspecific = assay: Nonspecific kainate binding assay; settings: 100 μM, triplicate; rat
Description: as §1, §2, §3

GABAA α4β1γ2 = molecular target: T2, GABAA α4β1γ2 (Homo sapiens, UniProt P18505+P48169); assay: FLIPR functional receptor assay, GABAA α4β1γ2; format: cell-based; settings: agonist mode; top test concentration 1 mM
T2 construct: host or cells: HEK 293
Description: (§4) Receptor functional & binding assays
(§5) Functional assays of all GABAA, NMDA (GluN2A–GluN2D) and AMPA (GluA2) receptor subunits were performed by SB Drug Discovery as a part of their CNS discovery panel using FLIPR technology. Briefly, receptor-expressing HEK 293 cell lines were incubated in a red membrane potential dye in HEPES:HBSS pH 7.4 buffer and the fluorescence (λex: 488, λex: 510–570) was monitored over time as the test compounds and/or reference compounds were added to the solution. In agonist assay, only test compounds were added. In positive allosteric modulator assay, cells were preincubated with test compounds and then low concentration (approximately EC20) of an appropriate agonist was added. In antagonist assay, cells were preincubated with test compounds and then high concentration (approximately EC80) of an appropriate agonist was added. For GABAA assays, GABA was used as the agonist, picrotoxin was used as the reference antagonist and allopregnanolone was used as the reference positive allosteric modulator (PAM). For NMDA assays, a mixture of glutamate, glycine and CaCl2 was used as the agonist, MK801 was the reference antagonist and pregnenolone sulfate or GNE 9278 were used as reference PAMs. […] All compounds were tested at 7 concentration points in triplicate and EC50/IC50 was determined where applicable. […]

GABAA α3β3γ2 = molecular target: T3, GABAA α3β3γ2 (Homo sapiens, UniProt P28472+P34903); assay: FLIPR functional receptor assay, GABAA α3β3γ2; format: cell-based; settings: top test concentration 1 mM; for EC50: agonist mode
T3 construct: host or cells: HEK 293
Description: as §4
Functional assays of all GABAA, NMDA (GluN2A–GluN2D) and AMPA (GluA2) receptor subunits were performed by SB Drug Discovery as a part of their CNS discovery panel using FLIPR technology. Briefly, receptor-expressing HEK 293 cell lines were incubated in a red membrane potential dye in HEPES:HBSS pH 7.4 buffer and the fluorescence (λex: 488, λex: 510–570) was monitored over time as the test compounds and/or reference compounds were added to the solution. In agonist assay, only test compounds were added. In positive allosteric modulator assay, cells were preincubated with test compounds and then low concentration (approximately EC20) of an appropriate agonist was added. In antagonist assay, cells were preincubated with test compounds and then high concentration (approximately EC80) of an appropriate agonist was added. For GABAA assays, GABA was used as the agonist, picrotoxin was used as the reference antagonist and allopregnanolone was used as the reference positive allosteric modulator (PAM). For NMDA assays, a mixture of glutamate, glycine and CaCl2 was used as the agonist, MK801 was the reference antagonist and pregnenolone sulfate or GNE 9278 were used as reference PAMs. For AMPA assays, glutamate was used as the agonist, CNQX was the reference antagonist and cyclothiazide was used as the reference PAM. All compounds were tested at 7 concentration points in triplicate and EC50/IC50 was determined where applicable. […]

GABAA α2β2γ2 = molecular target: T4, GABAA α2β2γ2 (Homo sapiens, UniProt P47869+P47870); assay: FLIPR functional receptor assay, GABAA α2β2γ2; format: cell-based; settings: agonist mode; top test concentration 1 mM
T4 construct: host or cells: HEK 293
Description: as §4, §5

GABAA α3β1γ2 = molecular target: T5, GABAA α3β1γ2 (Homo sapiens, UniProt P18505+P34903); assay: FLIPR functional receptor assay, GABAA α3β1γ2; format: cell-based; settings: agonist mode; top test concentration 1 mM
T5 construct: host or cells: HEK 293
Description: as §4, §5

[1] = molecular target: human glutamine synthetase (Homo sapiens, UniProt P15104); assay: Catalysis of 2MeGlu C5-amidation by human glutamine synthetase; format: biochemical; settings: 10 mM substrate, 5 ng/mL enzyme, ATP, NH4Cl
Description: The procedure was adapted from an existing protocol. To a reaction mixture in a 1.5 mL microcentrifuge tube containing 10 mM substrate, 10 mM ATP, 20 mM MgCl2, 40 mM NH4Cl, 25 mM 2-mercaptoethanol in 100 mM imidazole–HCl buffer pH 7.0, recombinant human glutamine synthetase (final concentration: 5 ng/mL) was added. The tubes were incubated in a preheated thermomixer at 37 °C and shaken at 600 rpm (30 s on, 30 s off). 5 μL aliquots were collected in triplicate every 5 min and immediately diluted with 195 μL of cold 60% ACN containing 10 μM Glu-d5 and Gln-d5 as internal standards in a 96 well plate. After collecting all samples, 200 μL of ACN was added to all wells and the plate was shaken at 1000 rpm for 5 min at room temperature, and then stored at − 80 °C until analysis.

T3 sequence (P34903 29-492): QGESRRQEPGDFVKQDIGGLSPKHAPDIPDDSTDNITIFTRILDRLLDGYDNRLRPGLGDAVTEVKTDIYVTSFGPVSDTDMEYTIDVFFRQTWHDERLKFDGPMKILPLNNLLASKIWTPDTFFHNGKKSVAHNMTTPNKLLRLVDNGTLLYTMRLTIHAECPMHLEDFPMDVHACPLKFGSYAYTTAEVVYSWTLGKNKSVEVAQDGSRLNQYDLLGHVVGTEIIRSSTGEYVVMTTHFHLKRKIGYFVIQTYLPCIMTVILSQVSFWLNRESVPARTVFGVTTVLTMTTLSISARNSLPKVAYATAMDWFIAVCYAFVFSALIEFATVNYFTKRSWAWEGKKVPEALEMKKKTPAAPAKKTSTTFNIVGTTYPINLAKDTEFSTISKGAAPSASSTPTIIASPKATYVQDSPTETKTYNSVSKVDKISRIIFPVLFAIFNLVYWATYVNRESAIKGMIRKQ
T3 sequence (P28472 26-473): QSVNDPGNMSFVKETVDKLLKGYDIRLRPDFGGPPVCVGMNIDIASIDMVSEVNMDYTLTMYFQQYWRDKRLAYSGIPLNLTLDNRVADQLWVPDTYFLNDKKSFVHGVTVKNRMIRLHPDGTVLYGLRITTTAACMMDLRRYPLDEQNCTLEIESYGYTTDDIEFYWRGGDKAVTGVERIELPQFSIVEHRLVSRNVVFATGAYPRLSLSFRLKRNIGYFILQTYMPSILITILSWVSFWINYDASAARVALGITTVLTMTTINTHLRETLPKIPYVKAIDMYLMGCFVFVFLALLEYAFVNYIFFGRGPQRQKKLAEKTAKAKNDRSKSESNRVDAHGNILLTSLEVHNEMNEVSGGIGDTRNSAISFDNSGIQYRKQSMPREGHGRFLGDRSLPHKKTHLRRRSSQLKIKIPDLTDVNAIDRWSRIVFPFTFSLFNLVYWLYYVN
T3 sequence (P18507 40-475 partner): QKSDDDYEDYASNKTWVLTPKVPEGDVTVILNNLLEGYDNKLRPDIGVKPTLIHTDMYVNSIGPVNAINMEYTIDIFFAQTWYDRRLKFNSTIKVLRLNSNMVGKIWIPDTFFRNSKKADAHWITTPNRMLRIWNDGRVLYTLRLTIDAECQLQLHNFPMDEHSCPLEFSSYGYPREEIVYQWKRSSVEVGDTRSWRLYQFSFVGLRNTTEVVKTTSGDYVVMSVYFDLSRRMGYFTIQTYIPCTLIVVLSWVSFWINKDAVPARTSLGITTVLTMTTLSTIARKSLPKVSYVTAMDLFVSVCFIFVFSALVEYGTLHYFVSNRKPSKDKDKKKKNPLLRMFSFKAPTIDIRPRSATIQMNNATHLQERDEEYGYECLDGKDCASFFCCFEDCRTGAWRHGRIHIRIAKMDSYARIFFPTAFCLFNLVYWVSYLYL
T5 sequence (P34903 29-492): as the sequence (P34903 29-492) above
T5 sequence (P18505 26-474): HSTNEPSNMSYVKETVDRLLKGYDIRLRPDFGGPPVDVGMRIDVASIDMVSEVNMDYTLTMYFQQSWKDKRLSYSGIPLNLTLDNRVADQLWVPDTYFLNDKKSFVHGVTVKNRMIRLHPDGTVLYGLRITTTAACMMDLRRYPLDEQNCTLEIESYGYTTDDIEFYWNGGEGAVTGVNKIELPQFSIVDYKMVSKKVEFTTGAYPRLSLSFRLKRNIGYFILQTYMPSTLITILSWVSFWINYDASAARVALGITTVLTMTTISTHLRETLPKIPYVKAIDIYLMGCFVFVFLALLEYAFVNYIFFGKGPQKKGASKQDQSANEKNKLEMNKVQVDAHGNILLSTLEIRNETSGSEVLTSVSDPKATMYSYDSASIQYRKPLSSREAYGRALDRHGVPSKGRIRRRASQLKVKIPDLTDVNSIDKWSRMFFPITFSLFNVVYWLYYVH
T5 sequence (P18507 40-475 partner): as the sequence (P18507 40-475 partner) above
T1 sequence (Q9UBS5 1-844 isoform Q9UBS5-2): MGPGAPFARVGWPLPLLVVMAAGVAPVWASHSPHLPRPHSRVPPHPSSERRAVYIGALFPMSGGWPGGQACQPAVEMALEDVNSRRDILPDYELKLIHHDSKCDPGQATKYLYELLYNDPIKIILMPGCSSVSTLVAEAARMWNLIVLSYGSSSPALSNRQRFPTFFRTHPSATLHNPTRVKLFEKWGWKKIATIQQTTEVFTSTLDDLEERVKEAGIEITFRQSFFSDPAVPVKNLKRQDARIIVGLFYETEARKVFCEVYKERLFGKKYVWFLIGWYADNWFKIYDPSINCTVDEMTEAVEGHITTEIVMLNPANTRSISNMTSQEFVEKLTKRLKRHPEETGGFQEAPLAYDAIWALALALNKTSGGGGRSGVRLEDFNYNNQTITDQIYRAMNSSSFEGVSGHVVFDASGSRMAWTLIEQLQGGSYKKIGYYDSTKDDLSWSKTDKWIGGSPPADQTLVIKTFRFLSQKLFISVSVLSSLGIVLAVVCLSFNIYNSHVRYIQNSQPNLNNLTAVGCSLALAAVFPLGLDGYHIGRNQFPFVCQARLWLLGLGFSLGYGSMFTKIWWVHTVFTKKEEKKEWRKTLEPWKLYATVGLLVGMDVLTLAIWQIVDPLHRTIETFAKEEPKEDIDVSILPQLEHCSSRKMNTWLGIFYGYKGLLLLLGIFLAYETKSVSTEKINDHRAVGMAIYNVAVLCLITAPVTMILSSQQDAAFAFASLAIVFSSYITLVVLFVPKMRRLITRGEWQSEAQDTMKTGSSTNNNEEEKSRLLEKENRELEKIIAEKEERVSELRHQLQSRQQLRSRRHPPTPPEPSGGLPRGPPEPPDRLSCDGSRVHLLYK
T1 sequence (O75899 42-941 partner): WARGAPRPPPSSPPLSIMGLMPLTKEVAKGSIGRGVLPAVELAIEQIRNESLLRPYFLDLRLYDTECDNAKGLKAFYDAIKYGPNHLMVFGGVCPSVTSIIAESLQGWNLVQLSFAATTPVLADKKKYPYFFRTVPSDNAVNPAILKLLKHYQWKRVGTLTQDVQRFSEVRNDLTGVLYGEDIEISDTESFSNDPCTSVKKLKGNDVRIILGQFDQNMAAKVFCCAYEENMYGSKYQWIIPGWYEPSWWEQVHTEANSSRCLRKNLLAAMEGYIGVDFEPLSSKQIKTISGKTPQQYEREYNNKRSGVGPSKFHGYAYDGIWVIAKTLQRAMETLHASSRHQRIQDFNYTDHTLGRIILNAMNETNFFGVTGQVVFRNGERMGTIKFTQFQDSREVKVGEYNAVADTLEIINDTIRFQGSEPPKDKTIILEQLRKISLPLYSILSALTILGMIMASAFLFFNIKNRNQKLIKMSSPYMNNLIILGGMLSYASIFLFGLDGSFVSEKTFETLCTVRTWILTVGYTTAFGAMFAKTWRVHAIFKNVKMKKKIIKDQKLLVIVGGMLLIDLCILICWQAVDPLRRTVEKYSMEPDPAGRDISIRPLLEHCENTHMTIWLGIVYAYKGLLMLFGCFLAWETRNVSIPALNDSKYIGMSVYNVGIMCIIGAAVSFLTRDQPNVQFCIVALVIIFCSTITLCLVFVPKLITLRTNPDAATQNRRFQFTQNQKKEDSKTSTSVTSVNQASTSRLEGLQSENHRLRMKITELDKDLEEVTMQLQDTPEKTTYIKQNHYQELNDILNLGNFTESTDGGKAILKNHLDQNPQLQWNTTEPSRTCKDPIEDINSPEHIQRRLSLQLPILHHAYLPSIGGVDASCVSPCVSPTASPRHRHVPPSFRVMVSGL
T4 sequence (P47869 29-451): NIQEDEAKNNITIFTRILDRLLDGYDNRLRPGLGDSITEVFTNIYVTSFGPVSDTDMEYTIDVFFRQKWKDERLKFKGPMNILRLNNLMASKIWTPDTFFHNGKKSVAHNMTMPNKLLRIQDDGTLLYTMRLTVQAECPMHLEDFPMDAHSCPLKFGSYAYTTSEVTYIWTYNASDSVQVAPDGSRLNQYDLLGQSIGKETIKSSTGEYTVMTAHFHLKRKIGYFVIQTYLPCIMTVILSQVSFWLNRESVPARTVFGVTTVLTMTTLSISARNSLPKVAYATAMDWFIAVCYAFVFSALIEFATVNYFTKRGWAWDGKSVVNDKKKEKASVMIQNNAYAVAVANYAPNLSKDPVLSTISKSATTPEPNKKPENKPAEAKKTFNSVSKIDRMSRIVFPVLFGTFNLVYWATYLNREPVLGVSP
T4 sequence (P47870 25-512 limits assumed): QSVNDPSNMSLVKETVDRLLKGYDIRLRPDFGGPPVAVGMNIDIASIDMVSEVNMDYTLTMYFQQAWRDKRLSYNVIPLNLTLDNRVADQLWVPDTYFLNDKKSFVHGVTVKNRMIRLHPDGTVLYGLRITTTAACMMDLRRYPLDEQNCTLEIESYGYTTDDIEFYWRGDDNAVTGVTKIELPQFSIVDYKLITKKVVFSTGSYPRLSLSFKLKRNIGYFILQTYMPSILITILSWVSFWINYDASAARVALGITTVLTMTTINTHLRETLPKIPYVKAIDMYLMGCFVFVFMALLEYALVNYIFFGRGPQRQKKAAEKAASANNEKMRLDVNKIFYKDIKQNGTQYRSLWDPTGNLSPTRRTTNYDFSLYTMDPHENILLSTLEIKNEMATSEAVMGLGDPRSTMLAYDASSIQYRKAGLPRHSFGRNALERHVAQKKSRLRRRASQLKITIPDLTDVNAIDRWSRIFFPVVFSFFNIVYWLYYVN
T4 sequence (P18507 40-475 partner): as the sequence (P18507 40-475 partner) above
Chain of human glutamine synthetase (P15104 whole entry): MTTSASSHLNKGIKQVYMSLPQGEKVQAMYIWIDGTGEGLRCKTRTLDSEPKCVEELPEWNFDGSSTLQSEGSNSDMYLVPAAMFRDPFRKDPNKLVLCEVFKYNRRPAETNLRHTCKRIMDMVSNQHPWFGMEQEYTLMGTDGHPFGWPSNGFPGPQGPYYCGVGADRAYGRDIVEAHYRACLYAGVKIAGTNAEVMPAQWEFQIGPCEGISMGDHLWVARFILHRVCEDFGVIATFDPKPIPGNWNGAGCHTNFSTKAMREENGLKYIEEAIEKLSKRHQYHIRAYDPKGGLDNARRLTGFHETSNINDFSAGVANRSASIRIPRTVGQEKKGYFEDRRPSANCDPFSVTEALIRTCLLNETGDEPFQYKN

| SMILES | inhibition at 100 µM (GABAB (B1b/B2)) [%] | % of radioligand binding inhibition, AMPA nonspec (AMPA nonspecific) [%] | % of radioligand binding inhibition, kainate nonspec (kainate nonspecific) [%] | EC50 (GABAA α4β1γ2) [µM] | EC50 (GABAA α3β3γ2) [µM] | IC50 (GABAA α3β3γ2; antagonist mode) [µM] | EC50 (GABAA α2β2γ2) [µM] | EC50 (GABAA α3β1γ2) [µM] | Substrate for glutamine synthetase (GS) [1] |
| --- | --- | --- | --- | --- | --- | --- | --- | --- | --- |
| C[C@](N)(CCC(=O)O)C(=O)O [(S)-2MeGlu, (S)-2-methylglutamic acid] | 14 | 12 | 20 | 704 | 725 | 978 | 530 | 782 | is a substrate for GS |
| C[C@@](N)(CCC(=O)O)C(=O)O [(R)-2MeGlu, (R)-2-methylglutamic acid] | 13 | 15 | 18 | 870 | 959 | – | 660 | 742 | not a substrate for GS |
